Assay results from patent US20240058452A1, “PHARMACEUTICAL COMPOSITION CONTAINING TEMPERATURE-RESPONSIVE IONIC LIQUID” (priority 2019, published 2024).

What was measured:
[1] = Confirmation of temperature responsive property of ionic liquid (lower critical solution temperature by absorbance at 450 nm); type: physicochemical; settings: absorbance 450 nm, heating 20° C.→95° C. (0.5° C./minute)
Experimental: (§1) Whether an ionic liquid is a temperature-responsive ionic liquid having a lower critical solution temperature (LCST-type temperature-responsive ionic liquid) is determined by measuring the absorbance of the liquid at a wavelength within a visible light region while gradually increasing the temperature and observing white turbidity, in other words, an abrupt increase in absorbance at a certain temperature caused by an increase in degree of hydrophobicity. The specific procedure is as follows. First, a mixture of an ionic liquid and water is prepared and the layer state at room temperature is observed. Then, the mixture is placed in a refrigerator of 4° C., sufficiently stirred and allowed to stand still for one hour. The state of the mixture is observed. If the layer state of the ionic liquid-water mixture at room temperature is the same as the layer state at 4° C., the mixture is increased in temperature at a rate of 0.5° C./minute within the range of 20° C. to 95° C. and the absorbance of the mixture is measured at 450 nm. Based on a change in absorbance, whether the ionic liquid thus measured is LCST-type temperature-responsive ionic liquid or not can be checked.
The obtained data of absorbance change can be analyzed by differential calculus according to Tm (nucleic acid melting temperature) analysis program to obtain the lower critical solution temperature. In contrast, if the phase state of the ionic liquid-water mixture at room temperature is different from the state at 4° C., the mixture is increased in temperature at a rate of 0.5° C./minute within the range of 5° C. to 40° C. and the absorbance of the mixture is measured at 450 nm. Based on a change in absorbance, whether the ionic liquid thus measured is LCST-type temperature-responsive ionic liquid or not can be checked.
(§2) More specifically, the temperature responsive property was examined by measuring a absorbance at 450 nm at different temperatures in the following measurement conditions to obtain a change in absorbance.
(0.5° C./minute) • Analysis method: calculation by differential calculus using Tm (nucleic acid melting temperature) analysis program
(§3) (0.5° C./minute) • Analysis method: calculation by differential calculus using Tm (nucleic acid melting temperature) analysis program.
as §3

[2] = test system: human cultured epidermal model (LabCyte EPI-MODEL12); settings: pregabalin 10 mg/mL in 100 mmol/L aqueous solution or dispersion of the ionic liquid, 300 μL donor, 37° C., control in water 252
Experimental: A human cultured epidermal model (LabCyte EPI-MODEL12, Japan Tissue Engineering Co., Ltd.) was used. The phase on the stratum corneum side of the model was defined as a donor phase, whereas the phase on the stratum basal side of the model was defined as a receptor phase. Whether a temperature-responsive ionic liquid enhances the permeation of pregabalin from the donor phase to the receptor phase was examined. The test was carried out in an incubator of 37° C. Pregabalin was dissolved in water, or a 100 mmol/L aqueous solution or water dispersion of a temperature-responsive ionic liquid to a concentration of 10 mg/mL. Each solution (300 μL) was added to the donor phase. Twenty-four hours later, a receptor fluid was sampled and analyzed by LC-MS/MS to obtain the amount of pregabalin permeated. The Hanks' balanced salt solution was used as the receptor fluid.

[3] = test system: human cultured epidermal model (LabCyte EPI-MODEL12); settings: 37° C.
Experimental: A human cultured epidermal model (LabCyte EPI-MODEL12, Japan Tissue Engineering Co., Ltd.) was used. The phase on the stratum corneum side of the model was defined as a donor phase, whereas the phase on the stratum basal side of the model was defined as a receptor phase. […] The test was carried out in an incubator of 37° C. […] Each solution (300 μL) was added to the donor phase. […] The Hanks' balanced salt solution was used as the receptor fluid.

[4] = mixture of ionic liquid and water as obtained in the synthesis
Experimental: as §1, §2

[5] = cited from earlier work
[6] = ionic liquid-water sample, UV1650PC, initial waiting 10 minutes
[7] = V-750, initial waiting 5 minutes

CCCC[P+](CCCC)(CCCC)CCCC.O=S(=O)([O-])c1ccccc1 [Reference Example 2-sample, tetrabutylphosphonium benzenesulfonate]
LCST (lower critical solution temperature) [1, 6]: None

CCCCCCCCCC(=O)O.C[N+](C)(C)CCO [Reference Example 3-sample, cholinium decanoate, reference compound]
LCST (lower critical solution temperature) [1, 7]: None | 24-hour Cumulative permeation amount of pregabalin [2]: 354 μg/cm^2

C[N+](C)(C)CCO.O=C([O-])c1ccccc1O [Reference Example 5-sample, cholinium salicylate]
LCST (lower critical solution temperature) [1, 7]: None

CCCC[P+](CCCC)(CCCC)CCCC.O=C([O-])c1ccc(C(F)(F)F)cc1O [Synthesis Example 1-sample, tetrabutylphosphonium 4-(trifluoromethyl)salicylate]
LCST (lower critical solution temperature) [1, 6]: 23.6 °C | 24-hour Cumulative permeation amount of pregabalin [2]: 3030 μg/cm^2 | 24-hour Cumulative permeation amount of lidocaine hydrochloride monohydrate ([3]; lidocaine hydrochloride monohydrate 10 mg/mL in 100 mmol/L aqueous solution or dispersion of the ionic liquid, control in water 308): 1100 μg/cm^2 | 24-hour Cumulative permeation amount of tramadol hydrochloride ([3]; tramadol hydrochloride 10 mg/mL in 100 mmol/L aqueous solution or dispersion of the ionic liquid, control in water 300): 2510 μg/cm^2 | compatibility with water at room temperature [4]: separated from water at room temperature

CCCC[P+](CCCC)(CCCC)CCCC.O=S(=O)([O-])c1ccc(Cl)cc1 [Synthesis Example 12-sample, tetrabutylphosphonium 4-chlorobenzenesulfonate]
LCST (lower critical solution temperature) [1, 6]: 25.6 °C | compatibility with water at room temperature [4]: separated from water at room temperature

CCCC[P+](CCCC)(CCCC)CCCC.Cc1ccc(S(=O)(=O)[O-])cc1 [Synthesis Example 16-sample, tetrabutylphosphonium p-toluenesulfonate]
LCST (lower critical solution temperature) [1, 6]: 54.6 °C | compatibility with water at room temperature [4]: compatible with water at room temperature

CCc1cccc2c3c([nH]c12)C(CC)(CC(=O)O)OCC3 (stereo not drawn) [etodolac]
solubility of etodolac to water [5]: 110 µg/mL

diisopropanolammonium decanoate [Reference Example 4-sample]
LCST (lower critical solution temperature) [1, 7]: None
